This is an account of results in patent publication US20230348362A1, “LIPID COMPOUNDS AND LIPID NANOPARTICLE COMPOSITIONS” (Suzhou Abogen Biosciences Co., Ltd., priority 2021, published 2023).

Data set [1] can be described thus: Lipid clearance study: lipid remaining in liver tissue by LC-MS/MS. The conditions noted are these: ICR female mice, 0.5 mg/kg i.v. bolus dose mRNA.
Protocol: LNPs were injected into mice via the tail vein (ICR female, IV, 0.5 mg mRNA/kg), then mice were anesthetized under carbon dioxide at different time (e.g., 6 h, 24 h, and 48 h) after administration and sacrificed via cardiac puncture. Liver tissue were collected immediately, and then washed by ice-cold saline. Liver samples were weighed and homogenized in ice water bath by adding pre-chilled 20% methanol-water (v/v) at 2˜8° C. with the ratio of 1:5 (w/v). The homogenized tissue samples were stored in −90˜−60° C. freezer prior to analysis.
Sample Processing. All liver tissue homogenate samples were allowed to thaw at room temperature. An aliquot of 50 μL of sample was added with 50 μL MgCl2 (2M), then added with ACN which contains of Verapamil, 5 ng·mL^−1 and Glibenclamide, 50 ng·mL^−1 and Diclofenac, 200 ng·mL^1 and Tolbutamide, 200 ng·mL^1 for protein precipitation, then centrifuged at 13000 rpm for 8 min. Then 100 μL of supernatant was added with 100 μL water, then vortexed well. An aliquot of 5 μL of the mixture was injected into the LC-MS/MS system.
Data set [2] in a line: Encapsulation efficiency of lipid nanoparticles, Quant-it Ribogreen RNA assay. The conditions noted are these: LNP of lipid/DSPC/cholesterol/PEG-lipid 50:10:38.5:1.5 encapsulating hEPO mRNA. The class given is physicochemical. A digest of the protocol: (§1)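 LNPs made from ionizable lipid/DSPC/cholesterol/PEG-lipid (50:10:38.5:1.5) and mRNA in citrate pH 4 by microfluidic mixing, lipid:mRNA about 10:1–30:1 w/w, then dialysed into DPBS and filtered. Size and PDI measured by DLS in backscatter mode; encapsulation efficiency measured by RiboGreen assay.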

Data set [3] can be described thus: Apparent pKa of LNP formulations, TNS fluorescence assay. The class given is physicochemical. As to conditions: LNP cationic lipid/DSPC/cholesterol/DMG-PEG 50/10/38.5/1.5 mol %. The gist of the method: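 LNPs (cationic lipid/DSPC/cholesterol/DMG-PEG 50/10/38.5/1.5 mol %) diluted to 0.1 mg/mL total lipid in citrate/phosphate/borate/NaCl buffers spanning pH 3–9 with TNS. Fluorescence (ex 325, em 435 nm) read at room temperature; pKa taken as the pH at half-maximal intensity from sigmoidal fit.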

A short description of data set [4]: Lipid nanoparticle size and polydispersity by dynamic light scattering. The data set is classed as physicochemical. As to conditions: LNP of lipid/DSPC/cholesterol/PEG-lipid 50:10:38.5:1.5 encapsulating hEPO mRNA. The gist of the method: as §1

`CCCCCCCC(=O)OCC(CCCCN(CCO)CCN(CCCCC(COC(=O)CCCCCCC)COC(=O)CCCCCCC)C1CCC1)COC(=O)CCCCCCC` [Compound 71]: the “% Dose Remaining in Liver Tissue” value in data set [1] (6 h) was found to be 1.34%; in data set [1] (24 h), 0.00%; in data set [1] (48 h), 0.00%. Moreover, the “Encapsulation Efficiency” value in data set [2] stood at 89.25%. In addition, the “Apparent Pka” value in data set [3] is on record as 6.489. For the same molecule, in data set [4], the polydispersity is recorded as 0.091. In addition, in data set [4], the “size (nm)” value is 65.56 nm.

For `CCCCCCCCC(CCCCCCCC)CNC(=O)CCCCCN1CCC(N(CCO)CCCCC(COC(=O)CCCCCCC)COC(=O)CCCCCCC)CC1` [Compound 218], the results for the “% Dose Remaining in Liver Tissue” value in data set [1] (6 h), in data set [1] (24 h) and in data set [1] (48 h) were 7.38%, 1.03% and 0.17%, respectively. Besides, the “Encapsulation Efficiency” value in data set [2] is 93.64%. The polydispersity in data set [4] is on record as 0.043. In data set [4], the “size (nm)” value came to 82.04 nm.

On to `CCCCCCCCC(CCCCCCCC)COC(=O)CCCCCN(CCCCN(CCO)CCCCC(COC(=O)CCCCCCC)COC(=O)CCCCCCC)C1CCC1` [Compound 220], for which the “% Dose Remaining in Liver Tissue” value stood at 7.87% in data set [1] (6 h), 1.98% in data set [1] (24 h) and 0.52% in data set [1] (48 h). For the same molecule, the “Encapsulation Efficiency” value in data set [2] is listed as 94.84%. The molecule further came in with a polydispersity in data set [4] of 0.15. In addition, in data set [4], the “size (nm)” value amounted to 94.56 nm.

Consider `CCCCCCCCCCCC(=O)OCCCCCN(CCN(CCO)CCCCCOC(=O)CC(CCCCCCCC)CCCCCCCC)C1CCCCCCC1` [Compound 95], for which the “Encapsulation Efficiency” value in data set [2] was 92.04%. The “Apparent Pka” value in data set [3] was 6.271. Further, in data set [4], the polydispersity is reported as 0.103 and the “size (nm)” value came to 55.48 nm.

For the molecule `CCCCCCCCC(CCCCCCCC)COC(=O)CCCCCN1CCC(N(CCO)CCCCC(COC(=O)CCCCCCC)COC(=O)CCCCCCC)CC1` [Compound 261], the “Encapsulation Efficiency” value in data set [2] was 95.18%. Also, the “Apparent Pka” value in data set [3] amounted to 6.552. In addition, in data set [4], the polydispersity is on record as 0.066 and the “size (nm)” value was 82.86 nm.

Regarding `CCCCCCCCC(CCCCCCCC)CC(=O)NCCCCCN(CCN(CCO)CCCCCOC(=O)CC(CCCCCCCC)CCCCCCCC)C1CCCCCC1` [Compound 74], the “% Dose Remaining in Liver Tissue” value worked out at 48.44% in data set [1] (6 h), 50.42% in data set [1] (24 h) and 50.83% in data set [1] (48 h). For the same molecule, the “Encapsulation Efficiency” value in data set [2] is on record as 92.74%. The polydispersity in data set [4] is 0.05. In addition, the “size (nm)” value in data set [4] was 67.96 nm.

Consider `CCCCCCCCC(CCCCCCCC)COC(=O)CCCCCN(CCO)CCN(CCCCCC(=O)OCC(CCCCCCCC)CCCCCCCC)C1CCC1` [Compound 10], for which, in data set [2], the “Encapsulation Efficiency” value came to 86.6%. Also, the “Apparent Pka” value in data set [3] came to 6.176. Further, in data set [4], the polydispersity amounted to 0.168 and the “size (nm)” value was 70.21 nm.

Turning to `CCCCCCCCCCCOC(=O)CCCCCN(CCN(CCO)CCCCCC(OCCCCCCCC)OCCCCCCCC)C1CCC1` [Compound 200], in data set [2], the “Encapsulation Efficiency” value worked out at 92.81%. Further, in data set [3], the “Apparent Pka” value was found to be 6.593. Moreover, in data set [4], the polydispersity is recorded as 0.054 and the “size (nm)” value was 84.18 nm.

With `CCCCCCCCC(CCCCCC)COC(=O)CCCCCN(CCCCN(CCO)CCCCC(COC(=O)CCCCCCC)COC(=O)CCCCCCC)C1CCCC1` (stereo not drawn) [Compound 191], the “Encapsulation Efficiency” value in data set [2] is 93.35%. The “Apparent Pka” value in data set [3] is reported as 6.552. Moreover, in data set [4], the polydispersity is given as 0.117 and the “size (nm)” value is 86.61 nm.

As to `CCCCCCCCCCCOC(=O)CCCCCN(CCN(CCO)CCCCCC(=O)OCC(CCCCCCCC)CCCCCCCC)C1CC(F)(F)C1` [Compound 50], the “Encapsulation Efficiency” value in data set [2] amounted to 93.4%. Besides, the “Apparent Pka” value in data set [3] was 5.786. In addition, in data set [4], the polydispersity is given as 0.235 and the “size (nm)” value amounted to 59.59 nm.

Turning to `CCCCCCCCC(CCCCCCCC)COC(=O)CCCCCN(CCNc1c(N(C)C)c(=O)c1=O)CCN(CCCCCC(=O)OCC(CCCCCCCC)CCCCCCCC)C1CCC1` [Compound 85], the “Encapsulation Efficiency” value in data set [2] is given as 93.27%. Further, the “Apparent Pka” value in data set [3] is on record as 6.126. For the same molecule, in data set [4], the polydispersity amounted to 0.096 and the “size (nm)” value was determined as 67.44 nm.

With `CCCCCCCCC(CCCCCC)CNC(=O)CCCCCN(CCCCCO)CCN(CCCCC(COC(=O)CCCCCCC)COC(=O)CCCCCCC)C1CCCCC1` (stereo not drawn) [Compound 209], in data set [2], the “Encapsulation Efficiency” value was 87.79%. Also, in data set [3], the “Apparent Pka” value was found to be 6.608. Further, in data set [4], the polydispersity was found to be 0.039 and the “size (nm)” value stood at 95.78 nm.

With `CCCCCCCCC(CCCCCCCC)COC(=O)CCCCCN(CCNc1c(NC)c(=O)c1=O)CCN(CCCCCC(=O)OCC(CCCCCCCC)CCCCCCCC)C1CCC1` [Compound 81], the “Encapsulation Efficiency” value in data set [2] was determined as 91.82%. Further, the “Apparent Pka” value in data set [3] amounted to 6.298. Further, in data set [4], the polydispersity stood at 0.051 and the “size (nm)” value was 55.27 nm.

For the molecule `CCCCCCCCC(CCCCCCCC)COC(=O)CCCCCN(CCC)CCN(CCO)CCCCCC(=O)OCC(CCCCCCCC)CCCCCCCC` [Compound 32], the “Encapsulation Efficiency” value in data set [2] came out at 92.1%. Besides, the “Apparent Pka” value in data set [3] came out at 6.378. For the same molecule, in data set [4], the polydispersity was 0.04 and the “size (nm)” value was determined as 57.09 nm.

On to `CCCCCCCCCCCOC(=O)CCCCCN(CCN(CCO)CCCCCOC(=O)N(CCCCCCCC)CCCCCCCC)C1CCCCC1` [Compound 99], for which the “% Dose Remaining in Liver Tissue” value in data set [1] (6 h) was determined as 22.45%; in data set [1] (24 h), 16.39%; in data set [1] (48 h), 14.08%. Besides, in data set [2], the “Encapsulation Efficiency” value stood at 83.64%. The polydispersity in data set [4] turned out to be 0.135. Besides, the “size (nm)” value in data set [4] was determined as 87.73 nm.

Take `CCCCCCCCC(CCCCCCCC)COC(=O)CCCCCN(CC)CCN(CCO)CCCCCC(=O)OCC(CCCCCCCC)CCCCCCCC` [Compound 27]: the “Encapsulation Efficiency” value in data set [2] turned out to be 95.20%. Besides, the “Apparent Pka” value in data set [3] was found to be 6.858. In data set [4], the polydispersity stood at 0.118 and the “size (nm)” value was 57.08 nm.

On to `CCCCCCCCC(CCCCCC)CNC(=O)CCCCCCCN(CCO)CCN(CCCCC(COC(=O)CCCCCCC)COC(=O)CCCCCCC)C1CCCCCCC1` (stereo not drawn) [Compound 215], for which the “Encapsulation Efficiency” value in data set [2] was 90.80%. The “Apparent Pka” value in data set [3] came to 6.542. Further, in data set [4], the polydispersity is recorded as 0.033 and the “size (nm)” value amounted to 67.78 nm.

Turning to `CCCCCCCCC(CCCCCC)CNC(=O)CCCCN(CCO)CCN(CCCCC(COC(=O)CCCCCCC)COC(=O)CCCCCCC)C1CCCCCCC1` (stereo not drawn) [Compound 214], in data set [2], the “Encapsulation Efficiency” value is reported as 89.14%. The “Apparent Pka” value in data set [3] is listed as 6.789. Moreover, in data set [4], the polydispersity amounted to 0.058 and the “size (nm)” value stood at 76.29 nm.

Take `CCCCCCCC(=O)OCC(CCCCN(CCO)CCCCN(CCCCC(COC(=O)CCCCCCC)COC(=O)CCCCCCC)C1CCC1)COC(=O)CCCCCCC` [Compound 219]: the “Encapsulation Efficiency” value in data set [2] was 94.13%. The “Apparent Pka” value in data set [3] was found to be 6.327. Moreover, in data set [4], the polydispersity was found to be 0.103 and the “size (nm)” value was 91.17 nm.

`CCCCCCCCC(CCCCCCCC)CC(=O)NCCCCCN(CCO)CCN(CCCCCNC(=O)CC(CCCCCCCC)CCCCCCCC)C1CCC1` [Compound 60]: the “Encapsulation Efficiency” value in data set [2] came to 91.7%. In addition, the “Apparent Pka” value in data set [3] amounted to 6.761. Further, in data set [4], the polydispersity is 0.039 and the “size (nm)” value stood at 59.89 nm.

As to `CCCCCCCCCOC(=O)CCCCCCCN1CCC(N(CCO)CCCCCCCC(=O)OC(CCCCCCCC)CCCCCCCC)CC1` [Compound 177], in data set [2], the “Encapsulation Efficiency” value is recorded as 93.69%. Besides, the “Apparent Pka” value in data set [3] turned out to be 6.668. Also, in data set [4], the polydispersity is on record as 0.059 and the “size (nm)” value is given as 95.00 nm.

With `CCCCCCCCC(CCCCCC)CNC(=O)CCCCCN(CC=C(C)C)CCN(CCO)CCCCC1COC(C(CCCCCC)CCCCCCCC)OC1` (stereo not drawn) [Compound 150], in data set [2], the “Encapsulation Efficiency” value is 91.34%. For the same molecule, the “Apparent Pka” value in data set [3] was 6.586. Also, in data set [4], the polydispersity was 0.076 and the “size (nm)” value is 76.37 nm.

Regarding `CCCCCCCCC(CCCCCCCC)COC(=O)CCCCCN(CC=C(C)C)CCN(CCO)CCCCCC(=O)OCC(CCCCCCCC)CCCCCCCC` [Compound 42], in data set [2], the “Encapsulation Efficiency” value was found to be 90.1%. Further, in data set [3], the “Apparent Pka” value stood at 6.159. In addition, in data set [4], the polydispersity was found to be 0.046 and the “size (nm)” value worked out at 66.04 nm.

For the molecule `CCCCCCCCC(CCCCCC)CNC(=O)CCCCCN(CCCCN(CCO)CCCCC(COC(=O)CCCCCCC)COC(=O)CCCCCCC)C1CC1` (stereo not drawn) [Compound 195], the “Encapsulation Efficiency” value in data set [2] is listed as 83.82%. The “Apparent Pka” value in data set [3] is on record as 6.925. For the same molecule, in data set [4], the polydispersity was 0.153 and the “size (nm)” value was 104.2 nm.

Take `CCCCCCCCC(CCCCCCCC)COC(=O)CCCCCN(CCN(CCO)CCOCCC(=O)OCC(CCCCCCCC)CCCCCCCC)C1CCC1` [Compound 110]: the “Encapsulation Efficiency” value in data set [2] came to 93.11%. Further, in data set [3], the “Apparent Pka” value is 6.293. In data set [4], the polydispersity is 0.042 and the “size (nm)” value is on record as 84.07 nm.
